Some results are limits rather than exact numbers.

Usually IC10 stands for the point of the concentration-response curve where the effect stands at 10%.

Data set [1] has as its system U2OS cells transduced by transcriptional circadian reporter mBmal1-Luc. Nature of the data set: Circadian rhythm period, U2OS cells with Bmal1-Luc reporter (Example 1). The format is cell-based, human. As to conditions: luminescence 144 hours, cosinor analysis, FIG. 1. The procedure: (§1) Human osteosarcoma U2OS cells were grown in standard DMEM with 10% fetal calf serum. U2OS cells were transduced with lentiviral particles containing the reporter pLV6-Bmal1-Luc (S. Brown, Addgene plasmid #68833) and selected under Blasticidin. The cell line was clonally expanded and a single monoclonal cell line was used for further experiments. Cells were cultured in a 384-well plate in growth medium to 90+% confluence. Test compound or vehicle (DMSO) was applied to recording medium with 100 U/ml penicillin, 100 μg/ml streptomycin, 1× GlutaMAX (ThermoFisher, Waltham, MA, USA), 10% fetal calf serum (Sigma) and 0.1 mM Luciferin-EF (Promega Madison, WI, USA). Luminescence was recorded every hour for an additional 144 hours in Luminoskan Ascent (ThermoFisher). Circadian rhythm analysis was performed using cosinor analysis.

Data set [2] concerns Bmal1 gene expression (mBmal1-Luc reporter). Nature of the data set: mBmal1-Luc reporter expression in U2OS cells (Example 4). The note with it: first 5-15 hours after application, FIG. 4. The format is cell-based, human. As for the experimental part: as §1, with “1×GlutaMAX” for “1× GlutaMAX”, “for” for “for an”, “(ThermoFisher).” for “(ThermoFisher). Circadian rhythm analysis was performed using cosinor analysis.”

The test system of data set [3] is Per2 gene expression (mPer2-Luc reporter). Nature of the data set: mPer2-Luc reporter expression in NIH3T3 cells (Example 5). The format is cell-based, mouse. The note with it: NIH3T3, first 1-12 hours after application, FIG. 5. The procedure:
Mouse embryonic fibroblasts NIH3T3 cells were grown in standard DMEM with 10% fetal calf serum. NIH3T3 cells were transfected with 1 μg of Per2-Luc reporter (Meng, 2009) using GeneJuice (Novagen) and selected under hygromycin. The cell line was clonally expanded and a single monoclonal cell line was used for further experiments. Cells were cultured in a 96-well plate in growth medium to 90+% confluence. Test compound or vehicle (DMSO) was applied to recording medium with 100 U/ml penicillin, 100 μg/ml streptomycin, 1×GlutaMAX (ThermoFisher, Waltham, MA, USA), 10% fetal calf serum (Sigma) and 0.1 mM Luciferin-EF (Promega Madison, WI, USA). Luminescence was recorded every hour for additional 144 hours in Luminoskan Ascent (ThermoFisher).

Data set [4] has as its system U2OS cells with mBmal1-Luc reporter. Nature of the data set: Combination with other chronotherapeutics, mBmal1-Luc U2OS cells (Example 6). The format is cell-based, human. The procedure: as §1, with “Test compounds” for “Test compound”, “(DMSO) were” for “(DMSO) was”, “streptomycin, 1×GlutaMAX” for “streptomycin, 1× GlutaMAX”, “for” for “for an”, “performed by” for “performed using”

In data set [5] the test system is retinal epithelium cells ARPE-19. It is filed as cell-based. As to conditions: human, 72 h. The procedure:
(§2) It is used for viability testing of eukaryotic cells. The effect of the compounds in several concentrations (maximum concentration of 100 microM and 3 three-fold dilutions) on viability of skin fibroblasts BJ and retinal epithelium cells ARPE-19 was evaluated after 72 hour treatment. The cells were maintained in standard cultivation medium DMEM with 10% fetal bovine serum. 5000 cells were seeded into 96-well plates 24 hours prior to the addition of test compound. DMSO vehicle was used as a negative control. After 72 hours, 1000-times concentrated solution of resazurin in DMSO was added to the cells zo the final concentration of 0.0125 mg/ml. Fluorescence (ex=570 nm, em=610 nm) was measured after 1 hour (ARPE-19) or 3 hours (BJ) of incubation. IC50 values were calculated from dose response curves using drc library for R programming environment.

Data set [6] deals with skin fibroblasts BJ. It is filed as cell-based. As to conditions: human, 72 h. As for the experimental part:
as §2

Data set [7] deals with Human fibroblasts BJ. Nature of the data set: Long-term cultivation of BJ fibroblasts, cell count (Example 9). The format is cell-based. The note with it: 12.5-100 µM, 12th day, FIG. 8. As for the experimental part: Human fibroblasts BJ were maintained in standard cultivation medium DMEM with 10% fetal bovine serum. The experiment was performed in 24-well plates. 10,000 cells in DMEM medium with 10% fetal bovine serum were seeded into the wells. The test compound was added to a final concentration in the range of 12.5-100 µM after 24 hours. DMSO vehicle was used as a negative control. In order to obtained better idea of test variability, 8 control wells were used (columns A and D). The cultivation medium containing either test compound or DMSO was replaced twice a week. The cells were trypsinized on the 12th day and counted on Coulter Z2 apparatus.

The format of data set [8] is in vitro ADME. As to conditions: human, 2 μM. As for the experimental part: This system is further referred to as RF-MS. Preparation of the lyophilized samples for the analysis is described in the sections dedicated to the individual methods. Lyophilized samples were dissolved in the mobile phase (95% water, 5% acetonitrile, 0.1% formic acid) with respective internal standards. The dissolved samples were aspired directly from 96-well plates into a 10 μL sample loop and passed through a C4 cartridge (Agilent Technologies) with solvent A (95% water, 0.01% formic acid, 5% acetonitrile) at a flow rate of 1.5 mL/minute for 3 seconds. After the desalting step, the analyte retained on the cartridge was eluted with solvent B (95% acetonitrile, 5% 0.01% formic acid) to the mass spectrometer at a flow rate of 0.4 mL/minute for 7 seconds. Mass spectrometry was carried out using electrospray ionization in the positive ion mode. Daughter ion peaks were identified using a multiple-reaction monitoring protocol.
Test compound (a final concentration of 2 μM) was incubated with human plasma (Transfusion Department, University Hospital Olomouc, Olomouc, Czech Republic) for 0, 15, 30, 60 and 120 min at 37° C. The reactions were stopped by addition of acetonitrile-methanol mixture (2:1). Samples were stored at −80° C. overnight and centrifuged (2811×g, 6 min, 4° C.). Supernatants were lyophilized.

Take `c1coc(CNc2ncnc3nc[nH]c23)c1` [N-(furan-2-ylmethyl)-7H-purin-6-amine]: the circadian rhythm period result in data set [1] was “extends the circadian rhythm period”. Besides, the Bmal1 gene expression entry in data set [2] is reported as “affects Bmal1 gene expression”. For the same compound, the Per2 gene expression entry in data set [3] is “regulates Per2 gene expression”. Also, the “effect on the length of the circadian period in combination with compounds that extend the circadian period” value in data set [4] (50 μM together with PF670, T0901317, KL001, rosiglitazon, SR9009, FIG. 6A-6E) is “additive or even synergistic effect”. In data set [4] (50 μM together with harmine, FIG. 6F), the “effect on the period when added to harmine” value is given as “caused a decrease of the period”. For the same compound, the 10% effect concentration (IC10) in data set [5] and in data set [6] was greater than 100 µM each time. The “cell growth (cell count)” value in data set [7] is given as “did not have a negative effect on cell growth”. The “Plasma stability (120 min) [% intact]” value in data set [8] amounted to 91 % intact.

For the origin of these results see patent US12558358B2 (UNIVERZITA PALACKEHO V OLOMOUCI, priority 2019, dated 2026).
